In the METLIN SMRT retention time set (Domingo-Almenara et al. 2019):

Assay: gradient 5% acetonitrile 3 min, to 50% in 2 min, to 85% in 15 min, held 3 min, 100 µL/min
Settings: column: Zorbax Extend-C18 2.1 x 50 mm; eluents: water / acetonitrile, 0.1% formic acid
In short: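 Retention time was recorded from adduct peaks, which were picked computationally and each inspected manually. Pure standards ran in mixtures of ~100 molecules on HPLC coupled to a quadrupole time-of-flight mass spectrometer, in positive and negative ionization mode, through a Zorbax Extend-C18 column (2.1 × 50 mm, 1.8 μm) at 100 μL/min. Eluents were water and acetonitrile, each with 0.1% formic acid.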

SMILES	RP-LC retention time
CCCCN1C(=O)C(C)(C(=O)NCc2cc(F)cc(F)c2)Oc2cccnc21 (stereo not given)	1020 s
Cc1nc(N2CCN(c3ccccn3)CC2)c2c(C)c(C(=O)Nc3cc(F)ccc3C)sc2n1	733 s
O=C(CSc1nc(=O)[nH]c2c1CCCC2)N1CCCc2ccccc21	729 s
OCc1ncc(-c2ccccc2)s1	762 s
COc1cc(-c2nc3ncccn3c2NCc2ccc(C)cc2)cc(OC)c1OC	746 s
COc1cccc(-n2cc(C(=O)Oc3cccnc3)c3ccccc3c2=O)c1	926 s
CCOC(=O)C1=C(O)C(=O)N(c2ccccc2)C1c1ccccc1 (stereo not given)	881 s
CCC(C)NC(=O)C1CCN(c2cnc(N3CCCCC3)nc2)CC1 (stereo not given)	686 s
Cc1cccc(/C=C/c2ccccc2)n1	664 s
Cc1ccn2cc(-c3ccc(NS(=O)(=O)c4cc(C(C)C)ccc4C)cc3)nc2n1	745 s
CCN1C(=O)CN(C(=O)C2CCCC2)CC12CCOCC2	651 s
CCc1ccc(-c2cc3c(=O)n(Cc4noc(CN5CCCCC5CC)n4)ccn3n2)cc1 (stereo not given)	778 s
CN(C)C(CNC(=O)c1cc(-c2cccs2)on1)c1ccccc1 (stereo not given)	664 s
COCCCNC(=O)c1cc(-c2ccc(OC)cc2)nc2n[nH]c(-c3ccc(OC)cc3)c12	1140 s
O=C(Nc1ccc2c(c1)OCCO2)N1CCC2(CC1)CC(N1CCCC1)CCO2 (stereo not given)	586 s
N#Cc1ccccc1CN1CCC(N2CC(OCC3CC3)C23CCCCC3)CC1 (stereo not given)	607 s
CC(C(=O)Nc1ccc2c(c1)OCCO2)n1cnc2nc3c(cc2c1=O)CCCC3 (stereo not given)	712 s
O=C(c1cccc(Br)c1)N1CCC(n2c(-c3ccco3)nc3cccnc32)C1 (stereo not given)	814 s
CO[C@H]1C(=O)N(C(C)C)[C@H]1C1CCN(C(=O)c2ccsc2)CC1	693 s

SMILES	RP-LC retention time
CCN1CCN(C(=O)C2CCN(CCc3cn(CC)c4ncccc34)CC2)CC1	525 s
COc1ccc(-c2nc3cnccn3c2Nc2cc(C)cc(C)c2)cc1OC	874 s
CC(C)c1noc(-c2ccnc(-n3cnc(C(=O)NC4CCCC4)c3)c2)n1	693 s
O=C(NCCOc1ccc2c(c1)OCO2)c1c(F)cccc1F	760 s
CN(C)C1(CC2CC2)CCN(C(=O)C2CC2)CC1	558 s
CC(C)CN1CCN(Cc2nc(Cn3ccn4nc(-c5ccccc5)cc4c3=O)no2)CC1	665 s
CC(C)(C)c1noc(-c2ccnc(-n3cnc(C(=O)N4CCOCC4)c3)c2)n1	808 s
CCOc1ccccc1C(=O)NCc1nc(C)no1	684 s
Cn1nc(C(=O)N2CCCCC2)c2c1CCN(C(=O)CCC(=O)NCC1CCCO1)C2 (stereo not given)	608 s
Cc1sc(NC(=O)C(C)(C)C)nc1-c1ccc2c(c1)NC(=O)C(C)O2 (stereo not given)	908 s
CCC(=O)N1c2ccccc2NC2=C(C(=O)CC(C)(C)C2)C1c1ccc(O)c(OC)c1 (stereo not given)	703 s
c1cncc(CN2CCCC(OCc3nc(-c4ccncc4)no3)C2)c1 (stereo not given)	557 s
Cc1cc(C)c2oc(C(=O)NCC(c3ccccc3)N(C)C)cc(=O)c2c1 (stereo not given)	636 s
Cc1ccc(C2Cn3nnc(-c4nc(-c5ccccc5)no4)c3CO2)c(C)c1 (stereo not given)	1240 s
Cc1ccc(S(=O)(=O)N2CCc3c(c(-c4nnc(-c5ccccc5)o4)nn3C)C2)c(C)c1	1020 s
Cc1ccc(-c2nc(N)n(C(=O)C(C)(C)C)n2)cc1	1080 s
CCCCNC(=O)c1nnn2c1COC(c1ccc(F)cc1)C2 (stereo not given)	929 s
Cc1nc(CSc2cc(-c3ccccc3)ncn2)cs1	907 s
COc1ccc(Cl)cc1S(=O)(=O)NC1CCCN(c2ccc(=O)[nH]n2)C1 (stereo not given)	698 s

SMILES	RP-LC retention time
CCNC(=O)c1cc(=O)[nH]c2c(Cl)cccc12	614 s
Cc1nc(C2CCOCC2)n(C2CCN(S(=O)(=O)c3ccccc3Cl)C2)n1 (stereo not given)	740 s
C=CCNc1ncnc2sc(SC)nc12	855 s
Cc1cc(C)c(NC(=O)Cn2cnc3nc(N4CCC(C(=O)NC5CC5)CC4)sc3c2=O)c(C)c1	754 s
COc1ccccc1CC(=O)N1CCCC1c1cc(C)on1 (stereo not given)	761 s
COC(=O)c1cc2c(=O)n(-c3nc4cc(C)c(C)cc4s3)ccc2nc1C	1420 s
O=C(CN1CCC(c2nc(-c3ccc(F)cc3)no2)CC1)N1CCN(c2ccccc2)CC1	618 s
CCOC(=O)c1noc2nc(C)nc(N3CCN(c4ccccc4)CC3)c12	643 s
CCN(CC)CCN1c2ccccc2Sc2ccc3ccccc3c21	893 s
Cc1ccc(NC(=O)c2nc(C)oc2C)c(C)c1	753 s
COc1cc(C(O)CCBr)c(OC)cc1C (stereo not given)	1020 s
COC(=O)[C@H](CCSC)NC(=O)c1cccc(-n2cnnn2)c1	707 s
CCN1CCN(CCNC(=O)C2CCCN(c3nc4cccnc4s3)C2)CC1 (stereo not given)	562 s
O=C(COc1ccc(Cl)cc1)Nc1ccc(-c2nc(-c3ccc(F)cc3)no2)cc1	1260 s
Cn1c(=O)oc2ccc(C(=O)Nc3nc4ccccc4s3)cc21	843 s
CCOc1cccc(-c2noc(CCn3nc(-c4ccc5c(c4)OCO5)ccc3=O)n2)c1	978 s
C[C@@H]1CN(C(=O)c2ccoc2)C[C@H]1c1nc(-c2ccccc2)no1	879 s
Fc1ccc(CN2CCCCC2c2nncn2CC2CC2)cc1F (stereo not given)	619 s
O=C(Cc1cccc(Cl)c1)N1CC(n2cnnc2C2CC2)C1	655 s

Now from value to molecule:

RP-LC retention time	SMILES
732 s	Cc1ccc(NC(=O)Cn2ncc3c(c2=O)N(C2CC2)C(=O)CS3)cc1C
599 s	CNC(=O)CSc1nnc(N2CCN(C(=O)c3cc(=O)c4ccccc4o3)CC2)s1
939 s	Cc1ccc(CN2CCN(CC(=O)Nc3cccc(C(F)(F)F)c3)C(=O)C2=O)cc1
1280 s	CCOc1ccc(NC(=O)c2c(O)c3cccnc3n(-c3cccc(F)c3)c2=O)cc1
1030 s	CC(=O)c1cccc(NC(=O)c2cnn3c4c(cnc23)CCCCCC4)c1
1150 s	CSc1cccc(NC(=O)c2nnn(Cc3ccc(F)cc3)c2-n2cccc2)c1
647 s	COc1ccc(C(O)CN2CCN(c3cccc(OC)c3)CC2)cc1 (stereo not given)
937 s	COc1ccc(NC(=O)c2cn(CC3CCCO3)cc3c(=O)n(-c4ccccc4)nc2-3)cc1 (stereo not given)
637 s	Cc1ccc(-c2ncc(C(=O)NCCN3CCCCCC3)c(-c3ccncc3)n2)cc1
716 s	Cn1cc(CN2CCC(C(=O)NCc3ccc(F)cc3)CC2)c2cc(Cl)ccc21
744 s	CC(C)CNC(=O)NCC1Cn2cccc2C(=O)N1Cc1ccccc1 (stereo not given)
818 s	CC(=O)c1ccc(NC(=O)Cn2nc3c4cc(-c5ccccc5)nn4ccn3c2=O)cc1
898 s	COc1cccc(CNC(=O)C2=C3CCCN3c3ccc(Cl)cc3S2(=O)=O)c1
667 s	CCOc1ccc(CC(=O)N2CCN(c3ccc(NC(=O)c4ccccc4)nn3)CC2)cc1
1130 s	Cc1sc(-c2cc(C(F)(F)F)on2)cc1S(=O)(=O)Nc1ccccc1
749 s	CN(c1nccn2c(=O)n(CC(=O)Nc3ccc(F)cc3)nc12)C1CCCCC1
849 s	Cc1ccc(S(=O)(=O)N2CC3CN(C(=O)COCc4ccccc4)CC(C2)O3)cc1

RP-LC retention time	SMILES
607 s	COc1cccc2cc(C(=O)Nc3ccc(-c4ccc(N5CCCC5)nn4)cc3)oc12
984 s	O=C(Nc1cc(F)cc(F)c1)N1CCC(CCNC(=O)C2(c3ccccc3)CC2)CC1
927 s	CC(C)n1c(=O)n(CC(=O)NC2CCCc3ccccc32)c2cc(S(=O)(=O)N3CCCC3)ccc21 (stereo not given)
811 s	Cc1ccccc1CNC(=O)CCc1nnc2c3cc(-c4ccc(F)cc4)nn3ccn12
943 s	COCCn1cc(C(=O)N2CCCc3ccccc32)c2nn(-c3ccccc3)c(=O)c-2c1
1090 s	O=C(NCc1ccco1)c1csc(N2CCN(c3ccc(Cl)cc3)CC2)n1
681 s	O=C(Nc1cccc2nsnc12)C1CCN(c2ccc(-c3ccc(F)cc3)nn2)CC1
1050 s	Cc1ccc(CN2CCCN(CC(=O)NC(C)CCc3ccccc3)S2(=O)=O)cc1 (stereo not given)
903 s	COc1ccc(-c2nc3ncccn3c2Nc2cccc(C(F)(F)F)c2)cc1
919 s	Cc1ccc(-n2c(N3CCCC(C(=O)NCc4ccc(F)cc4)C3)nc3ccsc3c2=O)cc1 (stereo not given)
637 s	Cc1cc(C)cc(N2CCC(NC(=O)Cc3ccsc3)C2=O)c1 (stereo not given)
593 s	Cc1cc(=O)c(OCc2ccccc2F)cn1CC(=O)NCc1ccco1
585 s	CC(C)C(=O)Nc1ccc2nc(N3CCN(Cc4ccccc4F)CC3)cc(C(=O)O)c2c1
716 s	COc1ccc(-n2ccn3cc(-c4ccc(F)cc4F)nc3c2=O)cc1
1010 s	CSc1ccc(NC(=O)N2CCN(c3ccc(C(F)(F)F)cn3)CC2)cc1
824 s	Cc1ccc(CNC(=O)N2CCC[C@@H]2C(=O)NCc2csc(-c3ccccc3)n2)cc1
